Experimental data as given in US9453226B2, “Protection of cells from Alu-RNA-induced degeneration and inhibitors for protecting cells” (UNIVERSITY OF KENTUCKY RESEARCH FOUNDATION, priority 2011, dated 2016).
Read-outs that look alike come from different tables or passages of the source.

Columns and labels:
[1] = test system: IL-18; test: IL-18 maturation in RPE cell lysates of wild-type mice (Western blot); format: in vivo; conditions: WT mice, peptide intravitreous
Description: siRNAs formulated in siRNA buffer (20 mM KCL, 0.2 mM MgCl2 in HEPES buffer at pH 7.5; Dharmacon) or phosphate buffered saline (PBS; Sigma-Aldrich); the TLR4 antagonist Ultra Pure Rhodobacter sphaeroides LPS (LPS-RS, InvivoGen), a peptide inhibitor of MyD88 homodimerization IMG-2005 (IMGENEX), control inhibitor (IMGENEX), recombinant IL-18 (Medical & Biological Laboratories), neutralizing rat antibodies against mouse IL-1β (IMGENEX), neutralizing rat antibodies against mouse IL-18 (Medical & Biological Laboratories), isotype control IgGs (R&D Systems or eBioscience as appropriate), Caspase-1 inhibitor Z-WEHD-FMK (R&D Systems), Caspase control inhibitor Z-FA-FMK (R&D Systems), DPI (Enzo Life Sciences), Mito-TEMPO (Enzo Life Sciences), MitoQ and dTPP (both adsorbed to cyclodextrin and provided by M.P. Murphy, MRC Mitochondrial Biology Unit), and gp91ds-tat and scrambled gp91 ds-tat (both Anaspec), were dissolved in phosphate buffered saline (PBS; Sigma-Aldrich) or dimethyl sulfoxide (DMSO; Sigma-Aldrich), and injected into the vitreous humor in a total volume of 1 μL with a 33-gauge Exmire microsyringe (Ito Corporation). […] As a control, Luc siRNA-chol (17+2 nt) was used with identical dosages. […]

[2] = test system: RPE; test: AAV1-BEST1-Cre-induced RPE degeneration in Dicer1 f/f mice; format: in vivo; conditions: peptide intravitreous
Description: Subretinal injections (1 μL) in mice were performed using a Pico-Injector (PLI-100, Harvard Apparatus). In vivo transfection of plasmids coding for two different Alu sequences (pAlu) or empty control vector (pNull) (Bennett et al., 2008; Kaneko et al., 2011; Shaikh et al., 1997) was achieved using 10% Neuroporter (Genlantis). AAV1-BEST1-Cre (Alexander and Hauswirth, 2008) or AAV1-BEST1-GFP were injected at 1.0×10^11 pfu/mL and in vitro transcribed Alu RNA was injected at 0.3 mg/mL. […]

[3] = target: T1, Caspase-1 (Homo sapiens, UniProt P29466); test: Caspase-1 activation in human RPE cells (Western blot p20, Caspalux substrate cleavage); format: cell-based; conditions: for Alu RNA-induced Caspase-1 substrate cleavage: Caspalux fluorescent substrate
T1 construct: Primary human RPE cells were isolated as previously described; endogenous in cells; host or cells: primary human RPE cells
T1 sequence (P29466 120-297 limits assumed): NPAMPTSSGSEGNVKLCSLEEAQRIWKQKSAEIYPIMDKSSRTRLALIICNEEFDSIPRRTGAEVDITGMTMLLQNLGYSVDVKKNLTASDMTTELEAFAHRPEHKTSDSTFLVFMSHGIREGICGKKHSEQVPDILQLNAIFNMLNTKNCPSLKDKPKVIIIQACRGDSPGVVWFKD
T1 sequence (P29466 317-404 limits assumed): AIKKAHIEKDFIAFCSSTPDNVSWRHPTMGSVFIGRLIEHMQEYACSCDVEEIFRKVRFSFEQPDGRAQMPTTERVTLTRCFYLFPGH
Description: Protein abundance was assessed by Western blot analysis using antibodies against Caspase-1 (1:500; Invitrogen), pIRAK1 (1:500; Thermo Scientific), pIRAK4 (1:500, Abbomax), PYCARD (1:200, Santa Cruz Biotechnology), NLRP3 (1:500, Enzo Life Sciences) and Vinculin (1:1,000; Sigma-Aldrich). Caspase-1 activity was visualized using Caspalux1 E1D2 (Oncolmmunin) according to manufacturer's instructions.
Tissues or cells were homogenized in lysis buffer (10 mM Tris base, pH 7.4, 150 mM NaCl, 1 mM EDTA, 1 mM EGTA, 1% Triton X-100, 0.5% NP-40, protease and phosphatase inhibitor cocktail (Roche)). Protein concentrations were determined using a Bradford assay kit (Bio-Rad) with bovine serum albumin as a standard. Proteins (40-100 μg) were run on NuPAGE Bis-Tris gels (Invitrogen) and transferred to Immun-Blot PVDF membranes (Bio-Rad). Cells were scraped in hot Laemmli buffer (62.5 mM Tris base, pH 6.8, 2% SDS, 5% 2-Mercaptoethanol, 10% Glycerol, 0.01% Bromophenol Blue). Samples were boiled and run on 4-20% NuPAGE Tris-Glycine gels (Invitrogen). The transferred membranes were blocked for 1 h at RT and incubated with antibodies against human Caspase-1 (1:500; Invitrogen), mouse Caspase 1 (1:500; MBL), NLRP3 (1:1000; Enzo Life Sciences), PYCARD (1:1000, RayBiotech), phospho-IRAK1 (S376) (1:500, Thermo Scientific), phospho-IRAK4 (T345) (1:500, AbboMax), DICER1 (1:2,000; Bethyl), MyD88 (1:1,000; Cell Signaling), and mouse IL-18 (1:200; MBL) at 4° C. overnight. Protein loading was assessed by immunoblotting using an anti-Vinculin antibody (1:1,000; Sigma-Aldrich). The secondary antibodies were used (1:5,000) for 1 h at RT. The signal was visualized by enhanced chemiluminescence (ECL plus) and captured by VisionWorksLS Image Acquisition and Analysis software (Version 6.7.2, UVP, LLC).
Caspase-1 activity. Caspase-1 activity was visualized by incubating cells with Caspalux1E1D2 reagent (Oncolmmunin) according to the manufacturer's instructions. Caspalux1E1D2 signal was quantified reading the fluorescence (excitation 552 nm, emission 580 nm) using a Synergy 4 reader (Biotek). Quantification of fluorescence from images was performed by converting images into grayscale in Adobe Photoshop CSS, and measuring the integrated density of black and white images using ImageJ software (NIH) (Bogdanovich et al., 2008).

[4] = test system: human RPE cells; conditions: human RPE cells transfected with pAlu
Description: All cell cultures were maintained at 37° C. and 5% CO2. Primary mouse RPE cells were isolated as previously described (Yang et al., 2009) and grown in Dulbecco Modified Eagle Medium (DMEM) supplemented with 20% FBS and standard antibiotics concentrations. Primary human RPE cells were isolated as previously described (Yang et al., 2008) and maintained in DMEM supplemented with 10% FBS and antibiotics. HeLa cells were maintained in DMEM supplemented with 20% FBS and standard antibiotics concentrations. THP-1 cells were cultured in RPMI 1640 medium supplemented with 10% FBS and antibiotics.
MTS assays were performed using the CellTiter 96 AQueous One Solution Cell Proliferation Assay (Promega) according to the manufacturer's instructions. For examining the cytoprotective effect of glycine in Alu RNA induced cell death, human RPE cells were transfected with pNull/pAlu. At 6 h post-transfection the cells were incubated with complete media containing glycine (5 mM) or vehicle, and cell viability was assessed after 24 h. Similarly, human RPE cells primed with LPS (5 μg/ml for 6 h) were treated with ATP (25 μM) in the presence of glycine containing media (5 mM). 30 min post ATP cell viability was assessed as described above.
MTS assays were performed using the CellTiter 96 AQueous One Solution Cell Proliferation Assay (Promega) according to the manufacturer's instructions.

Substance	pAlu-induced IL-18 maturation [1]	pAlu-induced IL-18 maturation ([1]; listed as Caspase-1 peptide inhibitor)	AAV1-BEST1-Cre-induced RPE degeneration [2]	Alu RNA-induced Caspase-1 substrate cleavage ([3]; listed as Caspase-1-inhibitory peptide)	Alu RNA-induced Caspase-1 substrate cleavage ([3]; listed as Caspase-1 inhibitor peptide)	Alu RNA-induced Caspase-1 substrate cleavage [3]	Alu RNA-induced Caspase-1 activation (p20 subunit) ([3]; Western blot)	pAlu-induced human RPE cell death / loss of cell viability ([4]; listed as MyD88-inhibitory peptide)	pAlu-induced human RPE cell death / loss of cell viability ([4]; listed as MyD88i)
Z-WEHD-FMK	blocked IL-18 maturation	impaired	blocked	blocked Alu RNA-induced substrate cleavage	blocks	–	–	–	–
DRQIKIWFQNRRMKWKKRDVLPGT [MyD88 inhibitory peptide]	–	–	blocked	–	–	does not reduce	unaffected	inhibited cell death	rescued
